According to the supplement of paper PMC8882468:

Tests used:
Assay in all cases: CTG-3D luminescence at 96 h relative to day-0 seeding control (ratio to day 0); higher = more growth / less cytotoxicity; PDxO 3D drug screen, 96 h, CTG-3D normalised to day-0 seeding control.
HCI-008 = tested on: HCI-008 (organoid from a HER2-enriched breast cancer xenograft)
HCI-019 = tested on: HCI-019 (organoid from a triple-negative breast cancer xenograft)
HCI-005.E2 = tested on: HCI-005.E2 (organoid from a breast cancer xenograft with a HER2-positive history)
HCI-017.E2 = tested on: HCI-017.E2 (organoid from an ER-positive breast cancer xenograft)
HCI-025 = tested on: HCI-025 (organoid from a breast cancer xenograft)
MDA-MB-231 = tested on: MDA-MB-231
HCI-016 = tested on: HCI-016 (organoid from a triple-negative breast cancer xenograft)

Cc1cc(Nc2ncnc3ccc(NC4=NC(C)(C)CO4)cc23)ccc1Oc1ccn2ncnc2c1 [tucatinib]
CTG-3D luminescence at 96 h
Conditions | 12.5 pM | 0.00025 µM | 0.005 µM | 0.1 µM | 1 µM | 10 µM | 100 µM | 625 fM
HCI-008, days in culture: 228 | 1.79 | 1.66 | 1.49 | 1.85 | 1.83 | 1.5 | 0.0233 | 1.8641
HCI-008, days in culture: 244 | 1.41 | 1.81 | 2.11 | 1.99 | 1.83 | 1.84 | 0.0167 | 2.29
HCI-016, days in culture: 153 | 2.94 | 1.99 | 2.31 | 1.49 | 2.19 | 1.96 | 0.013 | 1.94
HCI-016, days in culture: 172 | 2.3 | 2.27 | 1.67 | 1.43 | 1.54 | 0.81 | 0.0152 | 1.3
HCI-016, days in culture: 190 | 1.7 | 1.19 | 1.48 | 1.54 | 1.57 | 1.45 | 0.0124 | 1.1
HCI-016, days in culture: 199 | 1.77 | 1.74 | 1.65 | 1.66 | 1.78 | 1.38 | 0.019 | 1.83
HCI-017.E2, days in culture: 85 | 2.39 | 3.33 | 2.72 | 2.78 | 3.27 | 1.71 | 0.109 | 2.31
HCI-019, days in culture: 110 | 2.14 | 1.65 | 1.28 | 1.81 | 1.13 | 2.33 | 0.029 | 2.47
HCI-019, days in culture: 131 | 2.25 | 3.22 | 3.6 | 3.65 | 2.9 | 3.09 | 0.0325 | 4.09
HCI-019, days in culture: 152 | 3.48 | 3.89 | 3.04 | 1.67 | 1.99 | 2.26 | 0.0487 | 2
HCI-025, days in culture: 172 | 3 | 1.87 | 3.97 | 2.2 | 2.35 | 1.75 | 0.0232 | 2.16
HCI-025, days in culture: 209 | 1.95 | 2.11 | 2.45 | 1.5 | 1.95 | 1.9 | 0.0118 | 1.06
HCI-025, days in culture: 218 | 1.26 | 1.91 | 1.79 | 1.43 | 1.02 | 1.62 | 0.249 | 1.71

CTG-3D luminescence at 96 h
Conditions | 12.5 pM | 0.00025 µM | 0.005 µM | 0.1 µM | 1 µM | 10 µM | 100 µM | 625 fM
HCI-005.E2 | 1.56 | 1.61 | 2.08 | 2 | 1.47 | 1.53 | 0.00612 | 2.09
HCI-017.E2 | 1.74 | 1.98 | 2.09 | 1.95 | 1.79 | 1.413 | 0.0205 | 1.96
MDA-MB-231 | 4.57 | 4.49 | 4.6 | 4.56 | 4.67 | 4.64 | 0.058 | 4.58

CNC(=O)c1cccc(-c2ccc3c(N4CCOC[C@@H]4C)nc(N4CCOC[C@@H]4C)nc3n2)c1 [vistusertib]
CTG-3D luminescence at 96 h
Conditions | 12.5 pM | 0.00025 µM | 0.005 µM | 0.1 µM | 1 µM | 10 µM | 100 µM | 625 fM
HCI-008, days in culture: 228 | 1.54 | 1.64 | 1.41 | 0.913 | 0.71 | 0.548 | 0.289 | 1.66
HCI-008, days in culture: 244 | 1.33 | 1.73 | 2.19 | 1.74 | 1.08 | 0.812 | 0.329 | 2.1
HCI-016, days in culture: 153 | 2.83 | 1.97 | 2.44 | 1.36 | 1.01 | 1.52 | 0.486 | 1.72
HCI-016, days in culture: 172 | 2.41 | 1.96 | 1.67 | 1.67 | 0.7 | 0.422 | 0.424 | 1.42
HCI-016, days in culture: 190 | 1.92 | 1.44 | 1.77 | 1.19 | 0.838 | 0.424 | 0.374 | 1.44
HCI-016, days in culture: 199 | 1.72 | 1.65 | 1.77 | 1.76 | 0.654 | 0.556 | 0.348 | 1.81
HCI-017.E2, days in culture: 85 | 3.03 | 2.04 | 2.83 | 1.99 | 0.732 | 0.76 | 0.421 | 2.95
HCI-019, days in culture: 110 | 1.84 | 1.95 | 1.82 | 1.67 | 0.591 | 0.882 | 0.492 | 2.38
HCI-019, days in culture: 131 | 2.64 | 4.03 | 2.46 | 2.64 | 0.938 | 1.24 | 0.736 | 3.83
HCI-019, days in culture: 152 | 2.51 | 2.65 | 3.11 | 1.64 | 0.846 | 0.759 | 0.555 | 2.52
HCI-025, days in culture: 172 | 2.8 | 1.41 | 1.7 | 0.95 | 0.649 | 0.279 | 0.41 | 2.26
HCI-025, days in culture: 209 | 1.74 | 2.05 | 2.28 | 0.89 | 0.395 | 0.287 | 0.239 | 2.1
HCI-025, days in culture: 218 | 1.49 | 1.78 | 1.94 | 0.816 | 0.249 | 0.373 | 0.201 | 1.44

CTG-3D luminescence at 96 h
Conditions | 12.5 pM | 0.00025 µM | 0.005 µM | 0.1 µM | 1 µM | 10 µM | 100 µM | 625 fM
HCI-005.E2 | 1.89 | 2.02 | 2.14 | 2.05 | 0.528 | 0.53 | 0.57 | 1.98
HCI-017.E2 | 1.6 | 2.166 | 1.94 | 1.38 | 0.698 | 0.585 | 0.418 | 2.18
MDA-MB-231 | 4.58 | 4.53 | 4.66 | 4.35 | 3.31 | 2.7 | 1.9 | 4.64

O=C(c1ccc(F)c(F)c1Nc1ccc(I)cc1F)N1CC(O)([C@@H]2CCCCN2)C1 [cobimetinib]
CTG-3D luminescence at 96 h
Conditions | 12.5 pM | 0.00025 µM | 0.005 µM | 0.1 µM | 1 µM | 10 µM | 100 µM | 625 fM
HCI-008, days in culture: 228 | 1.65 | 1.7 | 1.33 | 1.14 | 1.11 | 1 | -0.00126 | 1.7
HCI-008, days in culture: 244 | 1.27 | 1.9 | 1.87 | 1.57 | 1.1 | 1.08 | 0.000182 | 2.25
HCI-016, days in culture: 153 | 3.32 | 1.63 | 2.26 | 1.1 | 1.56 | 1.38 | 0.0036 | 2.59
HCI-016, days in culture: 172 | 2.03 | 1.92 | 1.82 | 0.984 | 1.38 | 0.776 | 0.0013 | 1.63
HCI-016, days in culture: 190 | 1.55 | 1.08 | 1.45 | 1 | 0.91 | 0.962 | 0.00248 | 1.37
HCI-016, days in culture: 199 | 1.61 | 1.48 | 1.59 | 1.4 | 1.28 | 1.19 | 0.00262 | 1.78
HCI-017.E2, days in culture: 85 | 3.27 | 2.34 | 2.34 | 2.15 | 1.65 | 2.15 | 0.017 | 2.45
HCI-019, days in culture: 110 | 1.61 | 2.17 | 1.42 | 1.74 | 0.92 | 0.565 | -0.00268 | 2.27
HCI-019, days in culture: 131 | 2.19 | 3.62 | 3.36 | 3.24 | 1.65 | 1.41 | -0.00394 | 3.82
HCI-019, days in culture: 152 | 3.36 | 3.14 | 2.66 | 1.88 | 1.11 | 0.848 | -1.56e-05 | 2.36
HCI-025, days in culture: 172 | 2.78 | 1.47 | 2.47 | 1.38 | 1.47 | 0.608 | -0.00396 | 2.94
HCI-025, days in culture: 209 | 1.76 | 1.67 | 2.01 | 1.27 | 1.15 | 1.26 | -0.00298 | 1.83
HCI-025, days in culture: 218 | 1.65 | 2.13 | 1.88 | 1.42 | 1.18 | 1.58 | -0.00137 | 1.71

CTG-3D luminescence at 96 h
Conditions | 12.5 pM | 0.00025 µM | 0.005 µM | 0.1 µM | 1 µM | 10 µM | 100 µM | 625 fM
HCI-005.E2 | 1.55 | 1.65 | 1.32 | 1.05 | 0.579 | 0.594 | 0.00269 | 1.63
HCI-017.E2 | 1.77 | 2.11 | 2.18 | 1.89 | 1.889 | 1.57 | 0.00898 | 2.01
MDA-MB-231 | 4.37 | 4.46 | 4.46 | 3.88 | 2.4 | 1.24 | -0.00771 | 4.43
